Key:
HTT [1] = experiment: Gene panel canonical junction qPCR assay, HTT CJ mRNA (Table 7); format: cell-based, human; conditions: Homo sapiens, read-out: HTT CJ mRNA decrease IC50
Outline: (§1)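 IC50 values reflect compound concentration giving 50% reduction in canonical exon–exon junction mRNA. Cell lysates from A673 or K562 treatments were reverse-transcribed and probed by junction-spanning qPCR, normalized to a housekeeper and vehicle, then fitted to a 4-parameter logistic equation.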

Target C = experiment: Gene panel canonical junction qPCR assay, Target C CJ mRNA (Table 7); format: cell-based, human; conditions: Homo sapiens, read-out: Target C CJ mRNA decrease IC50
Outline: as §1

MYB [2] = experiment: RT-qPCR splicing assay, MYB AJ/CJ mRNA; format: cell-based; conditions: Homo sapiens, A673 or K562 cells, 24 hours; for IC50: decrease in canonical junction mRNA; for AC50: increase in alternative junction mRNA
Outline: (§2)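 Following 24 h compound exposure at 37 °C (11 points, 3-fold, highest 10 uM; DMSO ≤0.25%), A673 or K562 lysates underwent RT-qPCR for exon-inclusion (AJ) and canonical (CJ) junctions of HTT and MYB. Relative quantification used housekeeping-gene ΔCt and DMSO-normalized ΔΔCt, converted to percentage response.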

HTT [3] = experiment: RT-qPCR splicing assay, HTT AJ/CJ mRNA; format: cell-based, human; conditions: Homo sapiens, 24 h, A673 or K562 cells; for IC50: decrease in canonical junction mRNA; for AC50: increase in alternative junction mRNA
Outline: as §2

SMN2 = experiment: Gene panel canonical junction qPCR assay, SMN2 CJ mRNA (Table 7); format: cell-based; conditions: Homo sapiens, read-out: SMN2 CJ mRNA decrease IC50
Outline: as §1

MYB [4] = experiment: Gene panel canonical junction qPCR assay, MYB CJ mRNA (Table 7); format: cell-based; conditions: Homo sapiens, read-out: MYB CJ mRNA decrease IC50
Outline: as §1

Structure (SMILES)	IC50 (HTT [1])	IC50 (Target C)	IC50 (MYB [2])	IC50 (HTT [3])	IC50 (SMN2)	IC50 (MYB [4])	AC50 (MYB [2])	AC50 (HTT [3])
CN(c1ncc2c(n1)OCc1cc(-c3cnnc(O)c3)ccc1-2)C1CC(C)(C)NC(C)(C)C1 [Compound 277, 5-{3-[methyl(2,2,6,6-tetramethylpiperidin-4-yl)amino]-6H-isochromeno[3,4-d]pyrimidin-8-yl}pyridazin-3-ol]	0.1 to 1 µM	1 to 10 µM	1 to 10 µM	0.1 to 1 µM	0.1 to 1 µM	1 to 10 µM	1 to 10 µM	0.1 to 1 µM
CN1C[C@@H]2[C@H](C1)[C@H]2N(C)c1ccc2c(n1)OCc1cc(-n3cccn3)ccc1-2 [Compound 196]	> 10 µM	> 10 µM	> 10 µM	> 10 µM	> 10 µM	> 10 µM	> 10 µM	> 10 µM
COc1cc(-c2ccc3c(c2)COc2nc(NC4CC5CC(F)(F)C(C4)N5)ccc2-3)cnn1 (centres unmarked) [Compound 240, 6,6-difluoro-N-[8-(6-methoxypyridazin-4-yl)-6H-isochromeno[3,4-b]pyridin-3-yl]-8-azabicyclo[3.2.1]octan-3-amine]	< 0.1 µM	0.1 to 1 µM	1 to 10 µM	< 0.1 µM	0.1 to 1 µM	1 to 10 µM	1 to 10 µM	0.1 to 1 µM
COc1cc(-c2ccc3c(c2)COc2nc(O[C@@H]4C[C@H]5CC[C@@H](C4)N5)ccc2-3)cnn1 [Compound 223, (1R,3R,5S)-3-{[8-(6-methoxypyridazin-4-yl)-6H-isochromeno[3,4-b]pyridin-3-yl]oxy}-8-azabicyclo[3.2.1]octane]	< 0.1 µM	< 0.1 µM	0.1 to 1 µM	< 0.1 µM	< 0.1 µM	0.1 to 1 µM	< 0.1 µM	< 0.1 µM
FC1(F)CC2CC(Nc3ccc4c(n3)OCc3cc(-c5cn[nH]c5)ccc3-4)CC1N2 (centres unmarked) [Compound 241, 6,6-difluoro-N-[8-(1H-pyrazol-4-yl)-6H-isochromeno[3,4-b]pyridin-3-yl]-8-azabicyclo[3.2.1]octan-3-amine]	1 to 10 µM	1 to 10 µM	1 to 10 µM	1 to 10 µM	1 to 10 µM	1 to 10 µM	1 to 10 µM	1 to 10 µM
CC1(C)CC(N(c2ccc3c(n2)OCc2cc(-n4cccn4)ccc2-3)C2CC2)CC(C)(C)N1 [Compound 204]	1 to 10 µM	> 10 µM	1 to 10 µM	1 to 10 µM	1 to 10 µM	1 to 10 µM	> 10 µM	> 10 µM
CN1C[C@@H]2CN(c3ccc4c(n3)OCc3cc(-n5cccn5)ccc3-4)C[C@@H]2C1 [Compound 170]	1 to 10 µM	> 10 µM	> 10 µM	1 to 10 µM	1 to 10 µM	> 10 µM	1 to 10 µM	1 to 10 µM
COc1cc(-c2ccc3c(c2)COc2nc(N(C)C4CC(C)(C)NC(C)(C)C4)ncc2-3)cnn1 [Compound 276, N-[8-(6-methoxypyridazin-4-yl)-6H-isochromeno[3,4-d]pyrimidin-3-yl]-N,2,2,6,6-pentamethylpiperidin-4-amine]	0.1 to 1 µM	0.1 to 1 µM	1 to 10 µM	0.1 to 1 µM	0.1 to 1 µM	1 to 10 µM	1 to 10 µM	0.1 to 1 µM
[2H]C([2H])([2H])N(c1ccc2c(n1)OCc1cc(-n3cccn3)ccc1-2)C1C[C@H]2CCC[C@@H](C1)N2 (some centres unmarked) [Compound 200]	< 0.1 µM	0.1 to 1 µM	0.1 to 1 µM	< 0.1 µM	< 0.1 µM	0.1 to 1 µM	0.1 to 1 µM	< 0.1 µM
CN(c1ccc2c(n1)OCc1cc(-n3nccn3)ccc1-2)C1CC2CC(F)(F)C(C1)N2 (centres unmarked) [Compound 239, 6,6-difluoro-N-methyl-N-[8-(1,2,3-triazol-2-yl)-6H-isochromeno[3,4-b]pyridin-3-yl]-8-azabicyclo[3.2.1]octan-3-amine]	0.1 to 1 µM	1 to 10 µM	1 to 10 µM	0.1 to 1 µM	0.1 to 1 µM	1 to 10 µM	1 to 10 µM	1 to 10 µM

Second part, led by results:

IC50 (HTT [1])	IC50 (Target C)	IC50 (MYB [2])	IC50 (HTT [3])	IC50 (SMN2)	IC50 (MYB [4])	Structure (SMILES)	AC50 (MYB [2])	AC50 (HTT [3])
> 10 µM	> 10 µM	> 10 µM	> 10 µM	> 10 µM	> 10 µM	c1cnn(-c2ccc3c(c2)COc2nc(N4CC5(CCCNC5)C4)ccc2-3)c1 [Compound 168]	> 10 µM	> 10 µM
> 10 µM	> 10 µM	1 to 10 µM	> 10 µM	> 10 µM	1 to 10 µM	c1cc2c(cc1-c1cn[nH]c1)COc1nc(N3CCC34CCNCC4)ccc1-2 [Compound 221, 1-[8-(1H-pyrazol-4-yl)-6H-isochromeno[3,4-b]pyridin-3-yl]-1,7-diazaspiro[3.5]nonane 2,2,2-trifluoroacetate]	> 10 µM	> 10 µM
< 0.1 µM	0.1 to 1 µM	0.1 to 1 µM	< 0.1 µM	< 0.1 µM	0.1 to 1 µM	COc1cc(-c2ccc3c(c2)COc2nc(N4CC[C@@H](N(C)C(C)(C)C)C4)ccc2-3)cnn1 [Compound 271, (3R)—N-tert-butyl-1-[8-(6-methoxypyridazin-4-yl)-6H-isochromeno [3,4-b]377yrrolid-3-yl]-N-methylpyrrolidin-3-amine]	0.1 to 1 µM	< 0.1 µM
> 10 µM	> 10 µM	> 10 µM	> 10 µM	1 to 10 µM	> 10 µM	c1cnn(-c2ccc3c(c2)COc2nc(N4CCNCC4)ccc2-3)c1 [Compound 173]	> 10 µM	> 10 µM
< 0.1 µM	0.1 to 1 µM	0.1 to 1 µM	< 0.1 µM	< 0.1 µM	0.1 to 1 µM	COc1cc(-c2ccc3c(c2)COc2nc(N4CCNC(C(C)(C)C)C4)ccc2-3)cnn1 (centres unmarked) [Compound 304]	0.1 to 1 µM	< 0.1 µM
> 10 µM	> 10 µM	> 10 µM	> 10 µM	> 10 µM	> 10 µM	c1cnn(-c2ccc3c(c2)COc2nc(N4CCCC5(CNC5)C4)ccc2-3)c1 [Compound 181]	> 10 µM	> 10 µM
< 0.1 µM	< 0.1 µM	0.1 to 1 µM	< 0.1 µM	< 0.1 µM	0.1 to 1 µM	COc1cc(-c2ccc3c(c2)COc2nc(N4CC[C@@H](NC(C)(C)C)C4)ccc2-3)cnn1 [Compound 265, (3R)—N-tert-butyl-1-[8-(6-methoxypyridazin-4-yl)-6H-isochromeno[3,4-b]376yrrolid-3-yl]376yrrolidine-3-amine]	< 0.1 µM	< 0.1 µM
0.1 to 1 µM	0.1 to 1 µM	1 to 10 µM	0.1 to 1 µM	0.1 to 1 µM	1 to 10 µM	COc1cc(-c2ccc3c(c2)COc2nc(N4CCC(NC5CCC5)C4)ccc2-3)cnn1 (centres unmarked) [Compound 280, N-cyclobutyl-1-[8-(6-methoxypyridazin-4-yl)-6H-isochromeno[3,4-b]pyridin-3-yl]pyrrolidin-3-amine]	0.1 to 1 µM	0.1 to 1 µM
> 10 µM	> 10 µM	> 10 µM	> 10 µM	1 to 10 µM	> 10 µM	CC(C)(C)NC1CCN(c2ccc3c(n2)OCc2cc(-c4cnnc(C5CC5)c4)ccc2-3)C1 (centres unmarked) [Compound 266, N-tert-butyl-1-[8-(6-cyclopropylpyridazin-4-yl)-6H-isochromeno[3,4-b]pyridin-3-yl]pyrrolidin-3-amine]	> 10 µM	> 10 µM
< 0.1 µM	0.1 to 1 µM	0.1 to 1 µM	< 0.1 µM	< 0.1 µM	0.1 to 1 µM	COc1cc(-c2ccc3c(c2)COc2nc(N4CCC(NC(C)(C)C(C)C)C4)ccc2-3)cnn1 (centres unmarked) [Compound 316, N-(2,3-dimethylbutan-2-yl)-1-[8-(6-methoxypyridazin-4-yl)-6H-isochromeno[3,4-b]pyridin-3-yl]pyrrolidin-3-amine]	0.1 to 1 µM	0.1 to 1 µM
0.1 to 1 µM	1 to 10 µM	1 to 10 µM	0.1 to 1 µM	0.1 to 1 µM	1 to 10 µM	COc1cc(-c2ccc3c(c2)COc2nc(N4CCN5CCCC5C4)ccc2-3)cnn1 (centres unmarked) [Compound 283]	1 to 10 µM	1 to 10 µM
0.1 to 1 µM	1 to 10 µM	0.1 to 1 µM	0.1 to 1 µM	0.1 to 1 µM	0.1 to 1 µM	CN1CCC12CCN(c1ccc3c(n1)OCc1cc(-c4cn[nH]c4)ccc1-3)C2 (centres unmarked) [Compound 220, 3-(1-methyl-1,6-diazaspiro[3.4]octan-6-yl)-8-(1H-pyrazol-4-yl)-6H-isochromeno[3,4-b]pyridine]	0.1 to 1 µM	0.1 to 1 µM

Reference: patent US20240400584A1, “COMPOUNDS AND METHODS FOR MODULATING SPLICING” (REMIX THERAPEUTICS INC., priority 2021, published 2024)
